Values joined by “and” are separate entries in the source; they are usually repeats but may differ in a detail not shown here. Equal values may be shown once. Toxic doses and inconclusive results are not listed. Rule for the calls: active = survival T/C of 150% or more; inactive = T/C below 125% in these data.
Test system: CD2F1 mice, L1210 leukemia ip, survival T/C
Assay: NCI In Vivo Anticancer Drug Screen. Data for tumor model L1210 Leukemia (intraperitoneal) in CD2F1 (CDF1) mice
Details: higher = longer survival
In short: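 In this screen, transplantable tumors were grown in mice given either the compound or its vehicle. Results were expressed as the treated measurement relative to the control measurement.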

Measured: T/C

Cc1[nH]c(=O)[nH]c(=O)c1N(CCF)CCCl
inactive: endpoint: mean survival time, dose: 1.8 mg/kg/injection, schedule: Q01DX009 (ip), vehicle: saline 98 % of control | endpoint: mean survival time, dose: 3.0 mg/kg/injection, schedule: Q01DX009 (ip), vehicle: saline 102 % of control | endpoint: mean survival time, dose: 5.0 mg/kg/injection, schedule: Q01DX009 (ip), vehicle: saline 104 % of control | endpoint: mean survival time, dose: 8.0 mg/kg/injection, schedule: Q01DX001 (ip), vehicle: acid diluted with saline 95 % of control and 102 % of control | endpoint: mean survival time, dose: 8.0 mg/kg/injection, schedule: Q01DX001 (ip), vehicle: saline 98 % of control | endpoint: mean survival time, dose: 8.4 mg/kg/injection, schedule: Q01DX009 (ip), vehicle: saline 106 % of control | endpoint: mean survival time, dose: 8.4 mg/kg/injection, schedule: Q04DX003 (ip), vehicle: saline 108 % of control | endpoint: mean survival time, dose: 14.0 mg/kg/injection, schedule: Q01DX009 (ip), vehicle: saline 113 % of control | endpoint: mean survival time, dose: 14.0 mg/kg/injection, schedule: Q04DX003 (ip), vehicle: saline 105 % of control | endpoint: mean survival time, dose: 16.0 mg/kg/injection, schedule: Q01DX001 (ip), vehicle: acid diluted with saline 97 % of control and 100 % of control | endpoint: mean survival time, dose: 16.0 mg/kg/injection, schedule: Q01DX001 (ip), vehicle: saline 94 % of control and 100 % of control | endpoint: mean survival time, dose: 23.0 mg/kg/injection, schedule: Q01DX001 (ip), vehicle: saline 117 % of control | endpoint: mean survival time, dose: 23.0 mg/kg/injection, schedule: Q01DX009 (ip), vehicle: saline 107 % of control | endpoint: mean survival time, dose: 23.0 mg/kg/injection, schedule: Q04DX003 (ip), vehicle: saline 114 % of control | endpoint: mean survival time, dose: 32.0 mg/kg/injection, schedule: Q01DX001 (ip), vehicle: acid diluted with saline 96 % of control and 102 % of control | endpoint: mean survival time, dose: 32.0 mg/kg/injection, schedule: Q01DX001 (ip), vehicle: saline 105 % of control and 109 % of control | endpoint: mean survival time, dose: 39.0 mg/kg/injection, schedule: Q01DX001 (ip), vehicle: saline 117 % of control | endpoint: mean survival time, dose: 64.0 mg/kg/injection, schedule: Q01DX001 (ip), vehicle: acid diluted with saline 107 % of control and 110 % of control | endpoint: mean survival time, dose: 64.0 mg/kg/injection, schedule: Q01DX001 (ip), vehicle: saline 115 % of control and 120 % of control | endpoint: mean survival time, dose: 65.0 mg/kg/injection, schedule: Q01DX001 (ip), vehicle: saline 123 % of control | endpoint: median survival time, dose: 0.5 mg/kg/injection, schedule: Q03HX024 (ip), vehicle: acid diluted with saline 107 % of control | endpoint: median survival time, dose: 1.0 mg/kg/injection, schedule: Q03HX016 (ip), vehicle: acid diluted with saline 98 % of control | endpoint: median survival time, dose: 1.0 mg/kg/injection, schedule: Q03HX024 (ip), vehicle: acid diluted with saline 105 % of control | endpoint: median survival time, dose: 2.0 mg/kg/injection, schedule: Q01DX009 (ip), vehicle: acid diluted with saline 107 % of control | endpoint: median survival time, dose: 2.0 mg/kg/injection, schedule: Q03HX008 (ip), vehicle: acid diluted with saline 96 % of control | endpoint: median survival time, dose: 2.0 mg/kg/injection, schedule: Q03HX016 (ip), vehicle: acid diluted with saline 100 % of control | endpoint: median survival time, dose: 2.0 mg/kg/injection, schedule: Q03HX024 (ip), vehicle: acid diluted with saline 108 % of control | endpoint: median survival time, dose: 2.0 mg/kg/injection, schedule: Q03HX024 (oral), vehicle: acid diluted with saline 100 % of control | endpoint: median survival time, dose: 4.0 mg/kg/injection, schedule: Q01DX009 (ip), vehicle: acid diluted with saline 117 % of control | endpoint: median survival time, dose: 4.0 mg/kg/injection, schedule: Q01DX009 (sc), vehicle: acid diluted with saline 104 % of control | endpoint: median survival time, dose: 4.0 mg/kg/injection, schedule: Q03HX008 (ip), vehicle: acid diluted with saline 96 % of control | endpoint: median survival time, dose: 4.0 mg/kg/injection, schedule: Q03HX016 (ip), vehicle: acid diluted with saline 111 % of control | endpoint: median survival time, dose: 4.0 mg/kg/injection, schedule: Q03HX024 (ip), vehicle: acid diluted with saline 105 % of control | endpoint: median survival time, dose: 4.0 mg/kg/injection, schedule: Q03HX024 (oral), vehicle: acid diluted with saline 100 % of control | endpoint: median survival time, dose: 4.0 mg/kg/injection, schedule: Q04DX003 (ip), vehicle: acid diluted with saline 96 % of control | endpoint: median survival time, dose: 8.0 mg/kg/injection, schedule: Q01DX009 (ip), vehicle: acid diluted with saline 108 % of control | endpoint: median survival time, dose: 8.0 mg/kg/injection, schedule: Q01DX009 (oral), vehicle: acid diluted with saline 100 % of control | endpoint: median survival time, dose: 8.0 mg/kg/injection, schedule: Q01DX009 (sc), vehicle: acid diluted with saline 100 % of control | endpoint: median survival time, dose: 8.0 mg/kg/injection, schedule: Q03HX008 (ip), vehicle: acid diluted with saline 100 % of control | endpoint: median survival time, dose: 8.0 mg/kg/injection, schedule: Q03HX008 (oral), vehicle: acid diluted with saline 106 % of control | endpoint: median survival time, dose: 8.0 mg/kg/injection, schedule: Q03HX016 (ip), vehicle: acid diluted with saline 97 % of control | endpoint: median survival time, dose: 8.0 mg/kg/injection, schedule: Q03HX016 (oral), vehicle: acid diluted with saline 100 % of control | endpoint: median survival time, dose: 8.0 mg/kg/injection, schedule: Q03HX024 (ip), vehicle: acid diluted with saline 108 % of control | endpoint: median survival time, dose: 8.0 mg/kg/injection, schedule: Q03HX024 (oral), vehicle: acid diluted with saline 100 % of control | endpoint: median survival time, dose: 8.0 mg/kg/injection, schedule: Q04DX003 (ip), vehicle: acid diluted with saline 100 % of control | endpoint: median survival time, dose: 8.0 mg/kg/injection, schedule: Q08DX002 (ip), vehicle: acid diluted with saline 100 % of control | endpoint: median survival time, dose: 16.0 mg/kg/injection, schedule: Q01DX001 (ip), vehicle: acid diluted with saline 98 % of control | endpoint: median survival time, dose: 16.0 mg/kg/injection, schedule: Q01DX001 (sc), vehicle: acid diluted with saline 98 % of control | endpoint: median survival time, dose: 16.0 mg/kg/injection, schedule: Q01DX009 (ip), vehicle: acid diluted with saline 120 % of control | endpoint: median survival time, dose: 16.0 mg/kg/injection, schedule: Q01DX009 (oral), vehicle: acid diluted with saline 106 % of control | endpoint: median survival time, dose: 16.0 mg/kg/injection, schedule: Q01DX009 (sc), vehicle: acid diluted with saline 104 % of control | endpoint: median survival time, dose: 16.0 mg/kg/injection, schedule: Q03HX008 (ip), vehicle: acid diluted with saline 96 % of control | endpoint: median survival time, dose: 16.0 mg/kg/injection, schedule: Q03HX008 (oral), vehicle: acid diluted with saline 112 % of control | endpoint: median survival time, dose: 16.0 mg/kg/injection, schedule: Q03HX016 (ip), vehicle: acid diluted with saline 102 % of control | endpoint: median survival time, dose: 16.0 mg/kg/injection, schedule: Q03HX016 (oral), vehicle: acid diluted with saline 112 % of control | endpoint: median survival time, dose: 16.0 mg/kg/injection, schedule: Q03HX024 (oral), vehicle: acid diluted with saline 112 % of control | endpoint: median survival time, dose: 16.0 mg/kg/injection, schedule: Q04DX003 (ip), vehicle: acid diluted with saline 108 % of control | endpoint: median survival time, dose: 16.0 mg/kg/injection, schedule: Q04DX003 (oral), vehicle: acid diluted with saline 106 % of control | endpoint: median survival time, dose: 16.0 mg/kg/injection, schedule: Q08DX002 (ip), vehicle: acid diluted with saline 105 % of control | endpoint: median survival time, dose: 32.0 mg/kg/injection, schedule: Q01DX001 (ip), vehicle: acid diluted with saline 98 % of control | endpoint: median survival time, dose: 32.0 mg/kg/injection, schedule: Q01DX001 (sc), vehicle: acid diluted with saline 100 % of control | endpoint: median survival time, dose: 32.0 mg/kg/injection, schedule: Q01DX009 (oral), vehicle: acid diluted with saline 112 % of control | endpoint: median survival time, dose: 32.0 mg/kg/injection, schedule: Q03HX008 (ip), vehicle: acid diluted with saline 104 % of control | endpoint: median survival time, dose: 32.0 mg/kg/injection, schedule: Q04DX003 (ip), vehicle: acid diluted with saline 108 % of control | endpoint: median survival time, dose: 32.0 mg/kg/injection, schedule: Q04DX003 (oral), vehicle: acid diluted with saline 112 % of control | endpoint: median survival time, dose: 32.0 mg/kg/injection, schedule: Q08DX002 (ip), vehicle: acid diluted with saline 100 % of control | endpoint: median survival time, dose: 64.0 mg/kg/injection, schedule: Q01DX001 (ip), vehicle: acid diluted with saline 98 % of control | endpoint: median survival time, dose: 64.0 mg/kg/injection, schedule: Q01DX001 (oral), vehicle: acid diluted with saline 112 % of control | endpoint: median survival time, dose: 64.0 mg/kg/injection, schedule: Q01DX001 (sc), vehicle: acid diluted with saline 100 % of control | endpoint: median survival time, dose: 64.0 mg/kg/injection, schedule: Q01DX009 (oral), vehicle: acid diluted with saline 112 % of control | endpoint: median survival time, dose: 64.0 mg/kg/injection, schedule: Q04DX003 (ip), vehicle: acid diluted with saline 90 % of control | endpoint: median survival time, dose: 64.0 mg/kg/injection, schedule: Q04DX003 (oral), vehicle: acid diluted with saline 112 % of control | endpoint: median survival time, dose: 64.0 mg/kg/injection, schedule: Q08DX002 (ip), vehicle: acid diluted with saline 98 % of control | endpoint: median survival time, dose: 64.0 mg/kg/injection, schedule: Q08DX002 (oral), vehicle: acid diluted with saline 112 % of control | endpoint: median survival time, dose: 128.0 mg/kg/injection, schedule: Q01DX001 (oral), vehicle: acid diluted with saline 100 % of control | endpoint: median survival time, dose: 128.0 mg/kg/injection, schedule: Q01DX001 (sc), vehicle: acid diluted with saline 100 % of control | endpoint: median survival time, dose: 128.0 mg/kg/injection, schedule: Q04DX003 (oral), vehicle: acid diluted with saline 112 % of control | endpoint: median survival time, dose: 128.0 mg/kg/injection, schedule: Q08DX002 (oral), vehicle: acid diluted with saline 106 % of control | endpoint: median survival time, dose: 256.0 mg/kg/injection, schedule: Q01DX001 (oral), vehicle: acid diluted with saline 100 % of control | endpoint: median survival time, dose: 256.0 mg/kg/injection, schedule: Q01DX001 (sc), vehicle: acid diluted with saline 105 % of control | endpoint: median survival time, dose: 256.0 mg/kg/injection, schedule: Q04DX003 (oral), vehicle: acid diluted with saline 112 % of control | endpoint: median survival time, dose: 256.0 mg/kg/injection, schedule: Q08DX002 (oral), vehicle: acid diluted with saline 100 % of control | endpoint: median survival time, dose: 512.0 mg/kg/injection, schedule: Q01DX001 (oral), vehicle: acid diluted with saline 112 % of control

From PubChem BioAssay AID256 (DTP/NCI, 2004)
